Where two headings read alike, the source gives them in different places.
Tests used:
SW480 cells = assay: Cell cycle analysis in SW480 cells by flow cytometry; type: cell-based; conditions: 24-hour treatment
Protocol: (§1) Reagents. MDA-MB-231 (Breast adenocarcinoma, triple negative breast cancer) and SW480 (colorectal adenocarcinoma, stem-like subtype) cells were purchased from ATCC and cultured as per manufacturer's instruction. Thymidine (Sigma, T9250) stock solution (100 mM) was prepared in PBS. 2′-Deoxycytidine (Sigma, D897) stock solution (240 mM) was prepared in distilled H2O. Nocodazole (Selleck Chemicals, S2775) stock solution (5 mg/mL) was made in dimethyl sulfoxide (DMSO). FxCycle Far Red stain (F10348) for cell cycle analysis was purchased from Thermo Fisher Scientific.
Flow Cytometry Analysis. The SW480 cells were treated with NEK2 inhibitors at a concentration ranging from 0-1000 nM for 24 hours. After 24 hours of treatment, cells were detached and dissociated using 0.25% trypsin. After trypsinization, cells were washed with ice-cold PBS and fixed in 4% paraformaldehyde (PFA) at room temperature for 20 minutes. After fixation, cells were permeabilized by incubating in 90% methanol for 30 minutes on ice. Subsequently, cells were stained with FITC conjugated anti-EZH2 antibody (1:50, Cell Signaling technology) for 2 hours at room temperature and FxCycle Far Red stain (Thermo Fisher Scientific) for visualization of EZH2 expression and cell cycle, respectively. […] A minimum of 100,000 events were analyzed in each sample, and the results were evaluated using FlowJo software. […]

NEK2 = target: T1, NEK2 (Homo sapiens, UniProt P51955); assay: NanoBRET Target Engagement Intracellular Kinase Assay for NEK2 in transfected HEK293 cells; type: cell-based
T1 construct: expressed in transfected cells; host or cells: HEK293
T1 sequence (P51955 1-445): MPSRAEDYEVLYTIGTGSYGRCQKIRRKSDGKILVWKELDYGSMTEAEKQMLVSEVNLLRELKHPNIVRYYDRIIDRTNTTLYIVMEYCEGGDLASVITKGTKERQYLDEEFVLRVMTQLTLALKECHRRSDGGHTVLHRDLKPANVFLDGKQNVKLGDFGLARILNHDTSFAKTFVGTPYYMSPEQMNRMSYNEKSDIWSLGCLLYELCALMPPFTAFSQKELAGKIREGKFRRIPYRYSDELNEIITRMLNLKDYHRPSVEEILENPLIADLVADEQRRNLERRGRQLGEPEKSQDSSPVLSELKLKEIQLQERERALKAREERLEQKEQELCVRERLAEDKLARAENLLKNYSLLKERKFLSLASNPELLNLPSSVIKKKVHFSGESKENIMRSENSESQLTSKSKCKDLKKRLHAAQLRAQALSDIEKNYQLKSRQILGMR
Protocol: In this example, the compounds described herein were tested for their inhibitory activity against NEK2 using a model of in vivo activity by the NanoBRET™ Target Engagement Intracellular Kinase Assay (Reaction Biology Corp.). The assay was performed according to the manufacturer's protocol, as detailed below.
HEK293 cells were cultivated (70-80% confluence) prior to the assay. The sample was trypsinized and HEK293 cells were collected.
To prepare lipid: DNA complexes, a 10 μg/ml solution of DNA in Opti-MEM without serum was prepared that consisted of the following ratios of carrier DNA and DNA encoding NanoLuc® fusion: 9.0 μg/ml of Transfection Carrier DNA, 1.0 μg/ml of NanoLuc fusion vector DNA and 1 ml of Opti-MEM without phenol red. The solution was mixed thoroughly. 30 μl of FuGENE HD Transfection Reagent was added into each milliliter of DNA mixture to form lipid: DNA complex. The sample was mixed by inversion 10 times and then incubated at ambient temperature for 20 minutes to allow complexes to form. In a sterile, conical tube, 1 part of lipid:DNA complex was mixed with 20 parts of HEK293 cells in suspension. The resulting sample was mixed gently by inversion 5 times. The cell and lipid: DNA complex was dispensed into a sterile tissue culture dish and incubated for 22-24 hours.
Each test compound is delivered from the compound source plate to the wells of 384-well white NBS plate by Echo 550.
Step 3. Preparation of Cells with NanoBRET™ Tracer K5 Reagent:
The medium was removed from the dish with the transfected HEK293 cells via aspiration, trypsinized and cells were allowed to dissociate from the dish. Trypsin was neutralized using medium containing serum and centrifuged at 200×g for 5 minutes to pellet the cells. The cell density was adjusted to 2×10^5 cells/ml in Opti-MEM without phenol red.
The Complete 20× NanoBRET™ Tracer K5 Reagent with Tracer Dilution Buffer was prepared according to the manufacturer's instructions. One part of Complete 20× NanoBRET™ Tracer Reagent was added to 20 parts of cells in the tube. The sample was mixed gently by inversion 10 times. Next, the cell suspension was dispensed into white, 384-well NBS plates with a final tracer K5 concentration of 2 μM. The plate was incubated at 37° C., 5% CO2 for 1 hour. A separate set of samples without tracer were prepared for background correction steps.
The plate was removed from the incubator and equilibrated to room temperature for 15 minutes. The 3× Complete Substrate plus Inhibitor Solution in Assay Medium (Opti-MEMR I Reduced Serum Medium, no phenol red) was prepared just before measuring BRET. The 3× Complete Substrate plus Inhibitor Solution was added to each well of the 384-well plate and incubated for 2-3 minutes at room temperature. The donor emission wavelength (460 nm) and acceptor emission wavelength (600 nm) were measured using the Envision 2104 plate reader.
To generate raw BRET ratio values, the acceptor emission value (600 nm) was divided by the donor emission value (460 nm) for each sample. To correct for background, the BRET ratio in the absence of tracer (average of no-tracer control samples) was subtracted from the BRET ratio of each sample.
BRET Ratio=[(Acceptor sample÷Donor sample)−(Acceptor no-tracer control÷Donor no-tracer control)]

[1] = target: T2, NEK2 kinase (Accession No. NP-002488) (Homo sapiens, UniProt P51955); assay: HotSpot Kinase Assay, NEK2; type: biochemical
T2 construct: purchased ThermoFisher Scientific (Invitrogen)
T2 sequence (P51955 1-445): T1 sequence (P51955 1-445)
Protocol: (§2) In this example, the compounds described herein were tested for their inhibitory activity against NEK2 and/or Aurora A using the HotSpot™ Kinase Assay (Reaction Biology Corp.). The assay was performed according to the manufacturer's protocol, as detailed below. The NEK2 kinase (Accession No. NP-002488) and Aurora A kinase (Accession No. NP-940839) for use in these assays was sourced from ThermoFisher Scientific (Invitrogen).
(§3) The base Reaction Buffer used in this experiment contained the following: 20 mM Hepes (pH 7.5), 10 mM MgCl2, 1 mM EGTA, 0.02% Brij™-35, 0.02 mg/ml BSA, 0.1 mM Na3VO4, 2 mM DTT, and 1% DMSO. The required cofactors were added individually to each kinase reaction.
(§4) Testing compounds were dissolved in 100% DMSO to a specific concentration. The serial dilution was conducted by Integra Viaflo Assist in DMSO.
(§5) The substrate was prepared in freshly prepared Reaction Buffer. The required cofactors were delivered to the substrate solution described above. NEK2 kinase or Aurora A kinase was delivered to the substrate solution and gently mixed. Next, the compounds in 100% DMSO were transferred to the kinase reaction mixture by Acoustic technology (Echo550; nanoliter range) and incubated for 20 min at room temperature. ^33P-ATP (Specific activity 10 μCi/μl) was delivered into the reaction mixture to initiate the reaction. The reaction was incubated for 2 hours at room temperature. Radioactivity was then detected by the filter-binding method. Kinase activity data were expressed as the percent remaining kinase activity in test samples compared to vehicle (dimethyl sulfoxide) reactions. IC50 values and curve fits were obtained using Prism (GraphPad Software).

[2] = target: T3, Aurora A kinase (Accession No. NP-940839) (Homo sapiens, UniProt O14965); assay: HotSpot Kinase Assay, Aurora A; type: biochemical
T3 construct: purchased ThermoFisher Scientific (Invitrogen)
T3 sequence (O14965 1-403): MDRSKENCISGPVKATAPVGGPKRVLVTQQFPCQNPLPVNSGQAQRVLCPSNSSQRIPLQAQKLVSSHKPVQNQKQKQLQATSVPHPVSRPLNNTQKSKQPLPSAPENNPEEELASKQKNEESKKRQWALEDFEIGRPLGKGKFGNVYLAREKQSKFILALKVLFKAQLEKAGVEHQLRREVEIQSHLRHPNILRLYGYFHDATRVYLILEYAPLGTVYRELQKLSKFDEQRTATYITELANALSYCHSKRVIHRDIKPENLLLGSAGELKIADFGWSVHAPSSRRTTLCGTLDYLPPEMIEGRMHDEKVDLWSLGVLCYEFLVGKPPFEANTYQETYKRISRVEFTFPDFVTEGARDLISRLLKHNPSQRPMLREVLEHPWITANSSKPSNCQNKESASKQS
Protocol: as §2, §3, §4, §5

EZH2 expression = assay: Flow cytometry analysis for EZH2 expression in SW480 cells; type: cell-based; conditions: Homo sapiens, 24 hours treatment, 0-1000 nM, haploid and diploid cells, read-out: dose dependent decrease in EZH2 expression, IC50
Protocol: as §1
Antibodies. Polyclonal antibodies to phosphorylated-Ser55 Hec1 (PA5-85846; 1:1000) were purchased from ThermoFisher Scientific, and Phospho-Thr320 PP1α (2581S; 1:1000) and Total PP1α (2582S; 1:1000) were purchased from Cell Signaling Technologies. Monoclonal antibodies to Phospho-Ser10 Histone H3 (53348S; 1:1000), Total Histone H3 (14269; 1:5000), and EZH2-FITC (30233, 1:50) antibodies were purchased from Cell Signaling Technologies; Total Hec1 (ab109496; 1:10000) was purchased from Abcam; and Total NEK2 (sc-55601; 1:200) and GAPDH (sc-365062; 1:1000-2000) antibodies were purchased from Santa Cruz Technologies.
Flow Cytometry Analysis. […] A minimum of 100,000 events were analyzed in each sample, and the results were evaluated using FlowJo software. […]

[3] = comparator compounds, read-out: NEK2 Activity HotSpot Assay
[4] = comparator compounds, read-out: Aurora A Activity
[5] = NEK2 target engagement, read-out: NanoBRET IC50
[6] = HotSpot Kinase Assay, read-out: NEK2 IC50
[7] = HotSpot Kinase Assay, read-out: Aurora A IC50

SMILES	IC50 [2, 4]	IC50 (NEK2; [5])	IC50 [1, 6]	IC50 [2, 7]	further results
CCN(CCCOc1ccc2c(Nc3cc(CC(=O)Nc4cccc(F)c4)n[nH]3)ncnc2c1)CCOP(=O)(O)O [AZD-1152]	–	–	–	–	cell cycle distribution (SW480 cells): significantly arrested cells in G2-M phase
CN1CCN(Cc2ccc(Nc3ncc(Cl)c(Nc4ccc(C#N)c(OCc5ccccc5F)c4)n3)cc2)CC1 [CF-01, 4-((5-chloro-2-((4-((4-methylpiperazin-1-yl)methyl)phenyl)-amino)-pyrimidin-4-yl)amino)-2-((2-fluorobenzyl)-oxy)benzonitrile, reference compound]	796 nM	–	–	–	IC50 (NEK2; comparator compounds, read-out: NEK2 Activity NanoBRET assay): 264 nM; IC50 [1, 3]: > 1000 nM
CN1CCN(c2ccc(Nc3ncc(Cl)c(Nc4ccc(C#N)c(OCc5ccccc5F)c4)n3)cc2)CC1 [CF-02, 4-((5-chloro-2-((4-(4-methylpiperazin-1-yl)phenyl)-amino)-pyrimidin-4-yl)amino)-2-((2-fluorobenzyl)-oxy)benzonitrile, reference compound]	313 nM	–	–	–	IC50 [1, 3]: 264 nM
CN1CCN(c2ccc(Nc3ncc(Cl)c(Nc4ccc(C(N)=O)c(OCc5ccccc5F)c4)n3)cc2)CC1 [CF-03, 4-((5-chloro-2-((4-(4-methylpiperazin-1-yl)phenyl)amino)-pyrimidin-4-yl)-amino)-2-((2-fluorobenzyl)oxy)benzamide, reference compound]	0.1 nM	–	–	–	–
N#Cc1c(Nc2nc(Nc3ccc(N4CCOCC4)cc3)ncc2Cl)cccc1OCc1ccccc1F [Compound 2, 2-((5-chloro-2-((4-morpholinophenyl)amino)pyrimidin-4-yl)amino)-6-((2-fluorobenzyl)oxy)benzonitrile]	–	> 150 nM	≤ 5 nM	> 1000 nM	–
COc1cnc(Nc2ccc(N3CCNCC3)cc2)nc1Nc1cccc(OCc2ccccc2F)c1C#N [Compound 10, 2-((2-fluorobenzyl)oxy)-6-((5-methoxy-2-((4-(piperazin-1-yl)phenyl)amino)pyrimidin-4-yl)amino)benzonitrile]	–	50 to 150 nM	≤ 5 nM	> 1000 nM	–
Cc1cnc(Nc2ccc(N3CCNCC3)cc2)nc1Nc1cccc(OCc2ccccc2F)c1C#N [Compound 12, 2-((2-fluorobenzyl)oxy)-6-((5-methyl-2-((4-(piperazin-1-yl)phenyl)amino)pyrimidin-4-yl)amino)benzonitrile]	–	≤ 50 nM	≤ 5 nM	–	IC50 (EZH2 expression): 214 nM
CN(C)CCn1cc(Nc2ncc(Cl)c(Nc3cccc(OCc4ccccc4F)c3C#N)n2)cn1 [Compound 32, 2-((5-chloro-2-((1-(2-(dimethylamino)ethyl)-1H-pyrazol-4-yl)amino)pyrimidin-4-yl)amino)-6-((2-fluorobenzyl)oxy)benzonitrile]	–	–	> 15 nM	> 1000 nM	–
O=C(O)[C@]1(Cc2cccc(Nc3nccs3)n2)CC[C@@H](Oc2cccc(Cl)c2F)CC1 [MK-5108]	–	–	–	–	cell cycle distribution (SW480 cells): significantly arrested cells in G2-M phase

— patent US20230090742A1, “AMINOPYRIMIDINYLAMINOBENZONITRILE DERIVATIVES AS NEK2 INHIBITORS” (Sumitomo Pharma Oncology, Inc., priority 2020, published 2023)
